Assay results published in patent publication US11407725B2 (The Board of Trustees of the University of Illinois, priority 2018, dated 2022).

Columns and labels:
[1] = system: e-CSC and non-CSC melanoma lung metastases; experiment: Ex vivo lung metastases imaging; assay type: in vivo, mice; conditions: lungs perfused ex vivo, day 7 and 11
Experimental: Six to eight-week-old female C57BL/6J mice were purchased from Jackson Laboratory. Experimental metastases were established by injecting 2×10^5 melanoma cells via lateral tail vein injection. Mice were euthanized at either 7- or 11-days post injection. Immediately after euthanization, their lungs were excised and perfused with about 1 mL of either 15 μM AlDeSense AM or 15 μM Ctrl-AlDeSense AM in PBS. Outer portions of the lungs were rinsed in 15 mL of PBS to remove blood or excess dyes. After 2 hours incubation at room temperature (25° C.), the lungs were imaged on the IVIS spectrum imaging system (Perkin Elmer). Data was processed using Living Image software (Version 4.1).

[2] = molecular target: T1, ALDH1A3 (Homo sapiens, UniProt P47895); experiment: ALDH isoform selectivity of red probes: ALDH1A3; assay type: biochemical
T1 construct: made in house
T1 sequence (P47895 1-512): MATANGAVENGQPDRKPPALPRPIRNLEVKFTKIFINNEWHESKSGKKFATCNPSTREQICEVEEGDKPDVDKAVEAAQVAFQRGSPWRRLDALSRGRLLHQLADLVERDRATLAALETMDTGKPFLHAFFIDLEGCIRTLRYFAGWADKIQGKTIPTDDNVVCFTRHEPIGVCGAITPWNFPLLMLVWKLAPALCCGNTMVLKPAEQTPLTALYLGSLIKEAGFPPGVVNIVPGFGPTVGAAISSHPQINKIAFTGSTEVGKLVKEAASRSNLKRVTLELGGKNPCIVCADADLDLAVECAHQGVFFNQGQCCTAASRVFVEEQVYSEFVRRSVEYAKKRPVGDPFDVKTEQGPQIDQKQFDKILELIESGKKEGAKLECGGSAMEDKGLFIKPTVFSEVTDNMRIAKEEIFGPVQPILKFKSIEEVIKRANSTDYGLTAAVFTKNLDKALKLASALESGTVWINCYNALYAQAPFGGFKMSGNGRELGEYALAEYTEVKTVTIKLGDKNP
Experimental: (§1) Each ALDH isoform was added to a 50 mM triethanolamine solution (pH 7.4) containing 2.0 mM NAD^+ and 100 μM substrate at room temperature. Benzaldehyde was the substrate for ALDH3A1. Propanal was the substrate for all other isoforms. ALDH isoform activity was determined by monitoring the rate of NADH production through the increase in absorbance at 340 nm (ε=6220 M^−1cm^−1). For these assays, 1 unit is defined as the amount of enzyme that catalyzes the conversion of […] per minute. For every combination of dye and enzyme, 2 μM dye was preincubated with 2.0 mM NAD^+ in 50 mM triethanolamine solution (pH 7.4). The reaction was initiated by addition of 1 unit of ALDH. Dyes were excited at 590 nm, and fluorescence was measured continuously at 610 nm.

[3] = system: ALDH1A2, ALDH2, ALDH3A1, ALDH4A1, and ALDH5A1; experiment: ALDH isoform selectivity of red-AlDeSense: other isoforms; assay type: biochemical, human; conditions: 2 μM dye
Experimental: as §1

[4] = physchem
Experimental: The fluorescence of 1 μM of each compound was measured in 40 mM Britton-Robinson buffer at pH 2-9 in 0.5 pH intervals. Each measurement was performed in triplicate. […] Error bars are ±standard deviation (SD).

In the case of `Cc1cc(C=O)ccc1-c1c2cc(F)c(=O)cc-2oc2cc(O)c(F)cc12` [AlDeSense], the “fluorescence of e-CSC lungs versus non-CSC lungs” value [1] is reported as “higher”.

In the case of `Cc1cc(C=O)c(F)c(F)c1C1=C2C=CC(=O)C=C2[Si](C)(C)c2cc(O)ccc21`, the “selectivity ALDH1A1 versus ALDH1A3” value [2] is reported as “selective for ALDH1A1 over ALDH1A3”, the “Enzyme Activity 1A3” value ([2]; Table 2) is reported as “Low” and the “cross-reactivity with ALDH1A2, ALDH2, ALDH3A1, ALDH4A1, ALDH5A1” value [3] is reported as “no cross-reactivity”. For the same molecule, the pKa [4] was 6.68.
